Reference: paper PMC5831858, “Pharmacological characterisation of CR6086, a potent prostaglandin E2 receptor 4 antagonist, as a new potential disease-modifying anti-rheumatic drug” (Arthritis Research & Therapy, 2018)
Like-named read-outs stand apart in the source and are kept apart here.

Legend:
[1] = molecular target: T1, mouse EP4 receptor (Mus musculus, UniProt P32240); assay: EP4 radioligand binding assay ([^3H]PGE2), mouse receptor; details: [^3H]PGE2 displacement; transiently transfected HEK293 membranes; read-out: Ki CR6086
T1 construct: the cDNA encoding the full-length rat (NM_032076) or mouse (NM_001136079) EP4 receptors; host or cells: HEK293 (transient)
From the text: (§1) For rodent EP4 receptor cloning, the cDNA encoding the full-length rat (NM_032076) or mouse (NM_001136079) EP4 receptors cloned in pCMV6 entry was provided by OriGene Inc. (TrueORF Gold, catalogue numbers RN206839 and MC216813; OriGene, Rockville, MD, USA). Expression of rat and mouse receptors was obtained by transfecting HEK293 cells with the respective vector using Lipofectamine 3000 reagent (Thermo Fisher Scientific) according to the manufacturer’s instructions.
(§2) Membranes expressing the human EP4 receptor were prepared from stably transfected HEK293 cell line. […] Protein content of the cell membrane suspension was determined using bovine serum albumin (BSA) as a standard.
(§3) Experimental procedures were performed according to the method of Abramovitz et al.. […] The residual [^3H]PGE2 binding was determined using a solid scintillation counter (TopCount; PerkinElmer) after at least 1 h of stabilisation. In saturation binding studies, isotherm-binding curves generated with six to eight different concentrations of [^3H]PGE2 (from 0.5 to 25 nM) were evaluated. […]
(§4) Specific binding to the receptors was defined as the difference between total binding and non-specific binding, as determined in the presence of an excess of unlabelled ligand. […] Competition curves were analysed to assess the half-maximal inhibitory concentration (IC50). […] The results of replicated curves were expressed as mean ± SEM.

[2] = molecular target: FP (Homo sapiens, UniProt P43088); assay: Eicosanoid receptor FP binding; details: [^3H]PGF2α, HEK-293 cells, read-out: CR6086 Activity at 10µM
[3] = molecular target: IP (PGI2) (Homo sapiens, UniProt P43119); assay: Eicosanoid receptor IP binding; details: [^3H]iloprost, HEK-293 cells, read-out: CR6086 Activity at 10µM
[4] = molecular target: β1 (Homo sapiens, UniProt P08588); assay: Adrenergic receptor β1 binding; details: [^3H](-)CGP 12177, Human recombinant HEK-293 cells, read-out: CR6086 Activity at 10µM
[5] = molecular target: D1 (Homo sapiens, UniProt P21728); assay: Dopamine receptor D1 binding; details: [^3H]SCH 23390, Human recombinant CHO cells, read-out: CR6086 Activity at 10µM
[6] = molecular target: M3 (Homo sapiens, UniProt P20309); assay: Muscarinic acetylcholine receptor M3 binding; details: [^3H]4-DAMP, Human recombinant CHO cells, read-out: CR6086 Activity at 10µM
[7] = molecular target: H2 (Homo sapiens, UniProt P25021); assay: Histamine receptor H2 binding; details: [^125I]APT, Human recombinant CHO cells, read-out: CR6086 Activity at 10µM
[8] = test system: GABA (non-selective); assay: GABA receptor (non-selective) binding; details: [^3H]GABA, Rat cerebral cortex
[9] = test system: PCP; assay: PCP receptor binding; details: [^3H]TCP, Rat cerebral cortex
[10] = molecular target: Y1 (Homo sapiens, UniProt P25929); assay: Neuropeptide Y receptor Y1 binding; details: [^125I]peptide YY, SK-N-MC cells (endogenous), read-out: CR6086 Activity at 10µM
[11] = molecular target: B2 (Homo sapiens, UniProt P30411); assay: B2 receptor binding; details: [^3H]bradykinin, Human recombinant CHO cells, read-out: CR6086 Activity at 10µM
[12] = molecular target: MC4 (Homo sapiens, UniProt P32245); assay: MC4 receptor binding; details: [^125I]NDP-α-MSH, Human recombinant CHO cells, read-out: CR6086 Activity at 10µM
[13] = molecular target: rat EP4 receptor (Rattus norvegicus, UniProt P43114); assay: EP4 radioligand binding assay ([^3H]PGE2), rat receptor; design: the cDNA encoding the full-length rat (NM_032076) or mouse (NM_001136079) EP4 receptors; host or cells: HEK293 (transient)
From the text: as §1, §2, §3, §4

Sequence of rat EP4 receptor (P43114 whole entry): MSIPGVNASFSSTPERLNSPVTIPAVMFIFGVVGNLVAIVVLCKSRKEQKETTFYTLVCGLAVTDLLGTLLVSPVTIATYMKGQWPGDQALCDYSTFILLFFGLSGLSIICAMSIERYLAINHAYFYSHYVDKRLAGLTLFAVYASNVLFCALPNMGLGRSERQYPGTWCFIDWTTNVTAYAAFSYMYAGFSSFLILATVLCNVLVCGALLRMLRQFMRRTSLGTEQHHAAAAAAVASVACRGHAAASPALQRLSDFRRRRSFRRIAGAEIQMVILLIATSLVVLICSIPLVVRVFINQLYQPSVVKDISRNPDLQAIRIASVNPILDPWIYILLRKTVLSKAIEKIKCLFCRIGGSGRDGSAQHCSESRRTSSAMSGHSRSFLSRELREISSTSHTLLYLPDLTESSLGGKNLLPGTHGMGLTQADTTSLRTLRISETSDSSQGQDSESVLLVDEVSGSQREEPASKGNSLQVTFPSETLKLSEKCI
Sequence of B2 (P30411 whole entry): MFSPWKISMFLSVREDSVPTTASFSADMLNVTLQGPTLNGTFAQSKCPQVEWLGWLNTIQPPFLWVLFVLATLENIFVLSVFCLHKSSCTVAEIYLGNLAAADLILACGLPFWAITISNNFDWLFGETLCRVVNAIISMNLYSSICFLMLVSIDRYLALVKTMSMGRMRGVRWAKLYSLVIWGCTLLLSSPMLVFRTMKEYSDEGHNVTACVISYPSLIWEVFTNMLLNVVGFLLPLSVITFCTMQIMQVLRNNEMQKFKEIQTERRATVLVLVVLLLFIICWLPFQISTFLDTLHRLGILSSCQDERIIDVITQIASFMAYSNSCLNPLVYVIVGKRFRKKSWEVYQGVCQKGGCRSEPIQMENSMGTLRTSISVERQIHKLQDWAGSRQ
T1 sequence (P32240 whole entry): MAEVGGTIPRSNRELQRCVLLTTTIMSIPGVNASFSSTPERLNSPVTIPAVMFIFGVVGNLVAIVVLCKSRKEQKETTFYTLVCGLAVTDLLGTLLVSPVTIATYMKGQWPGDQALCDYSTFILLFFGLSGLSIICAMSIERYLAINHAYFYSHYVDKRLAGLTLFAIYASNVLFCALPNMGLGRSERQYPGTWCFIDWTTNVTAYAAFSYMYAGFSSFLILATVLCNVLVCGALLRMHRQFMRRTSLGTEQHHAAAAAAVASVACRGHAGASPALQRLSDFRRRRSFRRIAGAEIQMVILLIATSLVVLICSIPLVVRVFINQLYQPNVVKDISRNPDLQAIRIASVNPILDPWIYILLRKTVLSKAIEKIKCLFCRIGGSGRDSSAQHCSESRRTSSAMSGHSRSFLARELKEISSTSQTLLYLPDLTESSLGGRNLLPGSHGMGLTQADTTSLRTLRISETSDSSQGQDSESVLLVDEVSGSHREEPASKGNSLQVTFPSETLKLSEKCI
Sequence of H2 (P25021 whole entry): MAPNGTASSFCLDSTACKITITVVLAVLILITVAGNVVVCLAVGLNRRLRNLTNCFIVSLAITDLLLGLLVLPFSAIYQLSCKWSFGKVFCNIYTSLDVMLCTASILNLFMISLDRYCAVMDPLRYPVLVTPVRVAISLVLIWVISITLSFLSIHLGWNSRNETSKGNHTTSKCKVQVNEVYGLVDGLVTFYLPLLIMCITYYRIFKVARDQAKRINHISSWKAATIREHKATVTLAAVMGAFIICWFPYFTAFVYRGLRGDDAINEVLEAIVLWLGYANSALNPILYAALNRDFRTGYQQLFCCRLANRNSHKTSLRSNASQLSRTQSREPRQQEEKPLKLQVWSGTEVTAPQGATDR
Sequence of D1 (P21728 whole entry): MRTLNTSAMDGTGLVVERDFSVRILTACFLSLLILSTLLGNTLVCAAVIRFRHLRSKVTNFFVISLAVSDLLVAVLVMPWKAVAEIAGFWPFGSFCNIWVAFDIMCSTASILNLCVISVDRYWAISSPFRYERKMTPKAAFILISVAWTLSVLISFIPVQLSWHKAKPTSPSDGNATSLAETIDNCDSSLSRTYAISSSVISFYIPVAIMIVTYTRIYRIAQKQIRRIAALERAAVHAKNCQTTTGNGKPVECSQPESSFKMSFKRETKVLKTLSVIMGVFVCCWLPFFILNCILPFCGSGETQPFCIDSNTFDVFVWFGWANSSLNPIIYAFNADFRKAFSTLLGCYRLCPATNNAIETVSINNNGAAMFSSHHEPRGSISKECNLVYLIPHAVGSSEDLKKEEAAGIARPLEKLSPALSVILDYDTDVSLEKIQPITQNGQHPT
Sequence of IP (PGI2) (P43119 whole entry): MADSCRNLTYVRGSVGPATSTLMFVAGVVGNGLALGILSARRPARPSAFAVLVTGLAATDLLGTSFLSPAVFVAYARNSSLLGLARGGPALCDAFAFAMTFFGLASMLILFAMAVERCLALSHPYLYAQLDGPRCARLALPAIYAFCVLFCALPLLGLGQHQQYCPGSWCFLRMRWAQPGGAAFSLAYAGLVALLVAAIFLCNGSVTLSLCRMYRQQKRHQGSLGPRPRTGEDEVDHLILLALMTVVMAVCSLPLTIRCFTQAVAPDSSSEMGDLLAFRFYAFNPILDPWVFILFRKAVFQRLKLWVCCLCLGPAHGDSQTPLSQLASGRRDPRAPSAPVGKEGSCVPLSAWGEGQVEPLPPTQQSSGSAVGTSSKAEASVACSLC
Sequence of Y1 (P25929 whole entry): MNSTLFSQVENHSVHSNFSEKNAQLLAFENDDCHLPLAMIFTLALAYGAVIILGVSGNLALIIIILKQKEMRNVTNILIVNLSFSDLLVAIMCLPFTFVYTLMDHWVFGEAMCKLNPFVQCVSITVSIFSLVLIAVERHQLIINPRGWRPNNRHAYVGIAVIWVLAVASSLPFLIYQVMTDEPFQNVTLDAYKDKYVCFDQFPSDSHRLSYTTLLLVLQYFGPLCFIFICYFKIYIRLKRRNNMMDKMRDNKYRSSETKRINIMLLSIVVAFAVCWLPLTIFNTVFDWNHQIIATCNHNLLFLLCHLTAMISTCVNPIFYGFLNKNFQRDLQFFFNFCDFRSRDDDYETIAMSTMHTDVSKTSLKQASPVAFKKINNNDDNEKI
Sequence of M3 (P20309 whole entry): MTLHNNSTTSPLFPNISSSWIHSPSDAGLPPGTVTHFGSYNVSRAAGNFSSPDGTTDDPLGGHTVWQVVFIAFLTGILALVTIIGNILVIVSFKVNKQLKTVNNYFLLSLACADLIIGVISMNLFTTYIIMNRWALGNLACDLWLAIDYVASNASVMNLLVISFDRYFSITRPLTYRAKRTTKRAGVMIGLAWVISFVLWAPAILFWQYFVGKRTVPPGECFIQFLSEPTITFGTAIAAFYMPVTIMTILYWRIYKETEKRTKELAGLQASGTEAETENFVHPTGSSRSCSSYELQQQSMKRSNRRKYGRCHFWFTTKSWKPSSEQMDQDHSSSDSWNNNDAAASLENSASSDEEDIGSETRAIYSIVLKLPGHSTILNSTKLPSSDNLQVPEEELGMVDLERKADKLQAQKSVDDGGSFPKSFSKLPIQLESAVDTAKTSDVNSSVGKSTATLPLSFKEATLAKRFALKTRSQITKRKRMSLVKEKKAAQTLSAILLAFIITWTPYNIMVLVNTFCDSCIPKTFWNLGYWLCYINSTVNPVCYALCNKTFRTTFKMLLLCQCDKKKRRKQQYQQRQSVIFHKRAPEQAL
Sequence of MC4 (P32245 whole entry): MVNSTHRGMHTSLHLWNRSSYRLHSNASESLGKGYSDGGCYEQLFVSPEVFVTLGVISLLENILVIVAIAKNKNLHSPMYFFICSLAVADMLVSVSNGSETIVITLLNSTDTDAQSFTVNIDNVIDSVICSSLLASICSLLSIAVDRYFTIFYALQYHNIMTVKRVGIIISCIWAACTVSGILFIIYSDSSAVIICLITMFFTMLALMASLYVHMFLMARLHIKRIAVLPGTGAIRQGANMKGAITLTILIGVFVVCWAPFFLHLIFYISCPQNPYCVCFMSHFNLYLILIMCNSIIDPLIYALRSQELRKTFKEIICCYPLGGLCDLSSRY
Sequence of FP (P43088 whole entry): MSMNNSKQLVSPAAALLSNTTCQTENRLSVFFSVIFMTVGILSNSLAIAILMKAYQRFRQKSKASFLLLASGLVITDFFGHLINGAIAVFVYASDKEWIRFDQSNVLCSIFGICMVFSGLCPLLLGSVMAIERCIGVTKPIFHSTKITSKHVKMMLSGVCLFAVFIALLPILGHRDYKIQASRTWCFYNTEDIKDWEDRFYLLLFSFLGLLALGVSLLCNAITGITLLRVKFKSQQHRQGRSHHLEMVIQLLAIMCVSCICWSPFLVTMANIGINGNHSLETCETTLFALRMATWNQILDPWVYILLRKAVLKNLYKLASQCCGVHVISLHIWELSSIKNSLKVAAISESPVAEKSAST
Sequence of β1 (P08588 whole entry): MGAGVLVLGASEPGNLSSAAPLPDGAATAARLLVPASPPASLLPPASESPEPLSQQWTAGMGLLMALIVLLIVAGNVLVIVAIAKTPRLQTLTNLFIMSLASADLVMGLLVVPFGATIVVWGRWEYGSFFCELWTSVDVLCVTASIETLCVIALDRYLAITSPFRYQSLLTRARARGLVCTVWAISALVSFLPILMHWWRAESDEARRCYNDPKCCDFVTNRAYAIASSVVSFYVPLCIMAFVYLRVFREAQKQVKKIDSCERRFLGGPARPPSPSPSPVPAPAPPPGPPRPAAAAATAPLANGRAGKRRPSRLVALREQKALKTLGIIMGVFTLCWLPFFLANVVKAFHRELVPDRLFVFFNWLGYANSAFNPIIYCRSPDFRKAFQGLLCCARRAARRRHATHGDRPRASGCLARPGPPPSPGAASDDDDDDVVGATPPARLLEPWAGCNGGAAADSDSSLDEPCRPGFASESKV

## O=C([O-])c1ccc(C2(NC(=O)[C@H]3CC4(CCN3Cc3ccc(C(F)(F)F)cc3)CC4)CC2)cc1.[Na+] [CR6086, Sodium (R)-4-(1-(6-(4-(trifluoromethyl)benzyl)-6-azaspiro[2.5]octane-5-carboxamido)cyclopropyl)benzoate]
[1]
  Ki: 0.0759 ± 0.0076 µM
[2]
  inhibition at 10 µM: < 20%
[3]
  inhibition at 10 µM: < 20%
[4]
  inhibition at 10 µM: < 20%
[5]
  inhibition at 10 µM: < 20%
[6]
  inhibition at 10 µM: < 20%
[7]
  inhibition at 10 µM: < 20%
[8]
  CR6086 Activity at 10µM: IN (IN = < 20% displacement or inhibition (all tables))
[9]
  CR6086 Activity at 10µM: IN (IN = < 20% displacement or inhibition (all tables))
[10]
  inhibition at 10 µM: < 20%
[11]
  inhibition at 10 µM: < 20%
[12]
  inhibition at 10 µM: < 20%
[13]; [^3H]PGE2 displacement, transiently transfected HEK293 membranes, read-out: Ki CR6086
  Ki: 0.0766 ± 0.0123 µM
[13]; expressed as mass concentration, read-out: Ki value for the rat EP4 receptor (converted)
  Ki: 0.0732 µM
